# Laboratory results taken from patent US8071780B2, “2-Hydroxymethyl-3,4,5-trihydroxy-1-benzilpiperidine derivatives as inhibitors of glucosylceramide” (Actelion Pharmaceuticals Ltd., priority 2003, dated 2011).
# Legend:
# human GCS = biological target: T1, human GCS (Homo sapiens, UniProt Q16739); experiment: Cell-based IC50 for GCS inhibition by measuring glucosylceramide (GlcCer) depletion; details: MCF-7 cells cultured 5-7 days with compound; GlcCer depletion by HPTLC; read-out: Inhibition of GCS Cellular-based (IC50 μM)
# T1 construct: endogenous in cells; host or cells: MCF-7
# T1 sequence (Q16739 1-394): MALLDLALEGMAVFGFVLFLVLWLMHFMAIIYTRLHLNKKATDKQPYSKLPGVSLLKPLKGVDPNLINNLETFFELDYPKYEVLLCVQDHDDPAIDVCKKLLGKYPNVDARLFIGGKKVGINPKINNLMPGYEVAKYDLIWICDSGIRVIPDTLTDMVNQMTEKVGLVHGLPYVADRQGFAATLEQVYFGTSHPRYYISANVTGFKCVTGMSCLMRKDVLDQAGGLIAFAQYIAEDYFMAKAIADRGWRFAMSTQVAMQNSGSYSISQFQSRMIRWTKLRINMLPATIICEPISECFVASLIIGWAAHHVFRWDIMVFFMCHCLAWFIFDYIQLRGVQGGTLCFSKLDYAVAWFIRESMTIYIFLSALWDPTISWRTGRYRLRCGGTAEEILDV
# Description: Estimating the Cell-Based IC50 for GCS Inhibition by Measuring Glucosylceramide (GlcCer) Depletion
# Human mammary epithelial cells (MCF-7) were cultured for 5-7 days, with varying concentrations of a compound of the invention to be tested (0; 0.01; 0.05; 0.25; 1.25 and 6.25 μM). The cells were harvested and the total cellular lipids extracted. Neutral glycolipids were separated by partitioning in a DIPE/1-butanol/saline suspension, according to methods well known to those skilled in the art. The neutral glycolipid extracts were then separated by High-Performance Thin Layer Chromatography (HPTLC), using non-polar TLC conditions (chloroform:methanol: 0.2% CaCl2; 65:35:8), according to methods well known to those skilled in the art. GlcCer bands were visualized and the TLC plates were scanned immediately. Scion Image software was then used to quantify GlcCer in the samples relative to a GlcCer standard. This enabled a cell-based IC50 to be calculated for compounds of the invention for GCS inhibition.
# [1] = biological target: T2, non-lysosomal-β-glucocerebrosidase (Homo sapiens, UniProt Q9HCG7); experiment: Inhibition of non-lysosomal-β-glucocerebrosidase; format: biochemical; details: whole cell extracts of MCF7 as enzyme source; 5 mM 4-MU β-glucoside; pH 5.8
# T2 construct: whole cell extracts of MCF7 (a human breast carcinoma cell line) was used as the source of the enzyme; endogenous in cells; host or cells: MCF7 whole cell extract
# T2 sequence (Q9HCG7 1-927): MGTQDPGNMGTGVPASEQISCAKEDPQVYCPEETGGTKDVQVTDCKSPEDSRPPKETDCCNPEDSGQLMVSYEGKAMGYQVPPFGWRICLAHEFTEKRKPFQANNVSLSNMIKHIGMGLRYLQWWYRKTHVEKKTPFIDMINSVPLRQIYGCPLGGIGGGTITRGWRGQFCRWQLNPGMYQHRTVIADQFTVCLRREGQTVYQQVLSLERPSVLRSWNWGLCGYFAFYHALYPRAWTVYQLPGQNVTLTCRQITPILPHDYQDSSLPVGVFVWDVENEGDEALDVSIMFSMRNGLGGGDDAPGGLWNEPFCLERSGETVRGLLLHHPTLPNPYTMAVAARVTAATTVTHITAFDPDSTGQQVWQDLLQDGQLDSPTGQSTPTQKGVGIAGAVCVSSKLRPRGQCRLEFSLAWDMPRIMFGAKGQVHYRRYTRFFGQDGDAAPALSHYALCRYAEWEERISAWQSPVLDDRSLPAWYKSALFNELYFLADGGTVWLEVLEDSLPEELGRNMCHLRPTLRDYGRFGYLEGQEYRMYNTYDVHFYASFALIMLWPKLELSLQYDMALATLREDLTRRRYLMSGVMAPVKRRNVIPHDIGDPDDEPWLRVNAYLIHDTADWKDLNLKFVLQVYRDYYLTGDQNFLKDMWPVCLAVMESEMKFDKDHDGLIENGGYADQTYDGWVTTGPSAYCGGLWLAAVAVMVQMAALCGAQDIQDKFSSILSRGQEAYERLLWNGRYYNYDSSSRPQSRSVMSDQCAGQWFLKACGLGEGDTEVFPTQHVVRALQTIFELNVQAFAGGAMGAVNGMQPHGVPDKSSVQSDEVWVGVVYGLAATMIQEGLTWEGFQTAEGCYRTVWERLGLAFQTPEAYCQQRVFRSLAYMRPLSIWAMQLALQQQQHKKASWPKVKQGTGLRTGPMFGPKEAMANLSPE
# Description: Inhibition of non-lysosomal-β-glucocerebrosidase
# The assay for inhibition of non-lysosomal-β-glucocerebrosidase was essentially carried out as described in Overkleeft, H. S. et al., J. Biol. Chem. (1998) 273, 26522-26527 with the following differences: whole cell extracts of MCF7 (a human breast carcinoma cell line) was used as the source of the enzyme instead of splenic membrane suspensions; 5 mM instead of 3 mM, 4-MU β-glucoside was used as substrate and 0.2M citrate/phosphate (pH 5.8) was used instead of McIlvaine buffer.
# [2] = biological target: T3, human recombinant GCS expressed in insect cells (Homo sapiens, UniProt Q16739); experiment: Inhibition of GCS (glucosylceramide synthase); format: biochemical
# T3 construct: made in house; host or cells: insect cells
# T3 sequence (Q16739 1-394): T1 sequence (Q16739 1-394)
# Description: The assay for inhibition of GCS was performed essentially as described in Platt et al., J. Biol. Chem., (1994), 269, 27108, the enzyme source being human recombinant GCS expressed in insect cells.
SMILES,IC50 (human GCS) [µM],IC50 [1] [µM],IC50 [2] [µM]
"CCCCCOc1ccc(CN2C[C@H](O)[C@@H](O)[C@H](O)[C@@H]2CO)cc1 [Example 1, 3,4,5-Piperidinetriol, 2-(hydroxymethyl)-1-[(4-pentyloxyphenyl)methyl]-, (2S,3R,4R,5S)]",~0.015,0.001,0.15
"CCCCOc1ccc(CN2C[C@H](O)[C@@H](O)[C@H](O)[C@@H]2CO)cc1 [Example 2, 3,4,5-Piperidinetriol, 1-[(4-butoxyphenyl)methyl]-2-(hydroxymethyl)-, (2S,3R,4R,5S)]",,0.004,0.42
